Test results published in US20250188069A1, “COMPOUNDS AND METHODS FOR DEGRADING CASEIN KINASE 1 ALPHA” (PIN THERAPEUTICS, INC., priority 2022, published 2025).
Where a name gives a salt, the structure may show the parent alone.

Tests used:
[1] = tested on: MV-4-11 cells; test: AML cell viability assay (RealTime-Glo); assay type: cell-based; conditions: Homo sapiens, MV4-11; IC50 class; MV-4-11 cells, RealTime-Glo after 44 hrs of treatment (TABLE 3); read-out: Cell viability classification
[2] = target: CK1α (Homo sapiens, UniProt P48729+Q96SW2); test: CK1α degradation, flow cytometry in MV4-11 cells; assay type: cell-based; design: CK1α levels were determined in MV-4-11 cells using Jess (Protein Simple); host or cells: MV-4-11; conditions: % reduction of CK1α compared to DMSO, MV4-11 cells at 316 nM for 16 hours, read-out: CK1α degradation classification
Sequence of CK1α (P48729 whole entry): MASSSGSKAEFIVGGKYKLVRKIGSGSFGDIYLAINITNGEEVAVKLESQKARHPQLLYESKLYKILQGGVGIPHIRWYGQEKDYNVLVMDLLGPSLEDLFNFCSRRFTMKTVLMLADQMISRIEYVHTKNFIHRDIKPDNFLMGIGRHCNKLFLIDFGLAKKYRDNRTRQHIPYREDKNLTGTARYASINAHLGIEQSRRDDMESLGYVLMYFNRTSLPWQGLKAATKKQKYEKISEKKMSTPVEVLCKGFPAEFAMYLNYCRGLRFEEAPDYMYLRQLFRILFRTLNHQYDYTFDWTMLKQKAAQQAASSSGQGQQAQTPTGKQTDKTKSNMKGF
Sequence of CK1α (Q96SW2 whole entry): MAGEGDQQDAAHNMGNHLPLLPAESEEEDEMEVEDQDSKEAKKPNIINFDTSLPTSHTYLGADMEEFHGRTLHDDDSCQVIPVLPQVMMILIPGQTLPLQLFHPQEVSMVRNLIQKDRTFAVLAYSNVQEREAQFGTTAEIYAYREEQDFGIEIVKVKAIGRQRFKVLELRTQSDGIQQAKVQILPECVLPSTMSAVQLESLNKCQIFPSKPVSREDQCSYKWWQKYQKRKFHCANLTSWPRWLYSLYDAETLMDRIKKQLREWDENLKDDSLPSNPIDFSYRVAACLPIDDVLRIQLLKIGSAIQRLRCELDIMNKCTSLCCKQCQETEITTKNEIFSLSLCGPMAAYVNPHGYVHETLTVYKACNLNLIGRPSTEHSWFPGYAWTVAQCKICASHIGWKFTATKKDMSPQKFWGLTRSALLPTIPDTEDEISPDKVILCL
Sequence of CK1α (Q16531 whole entry partner): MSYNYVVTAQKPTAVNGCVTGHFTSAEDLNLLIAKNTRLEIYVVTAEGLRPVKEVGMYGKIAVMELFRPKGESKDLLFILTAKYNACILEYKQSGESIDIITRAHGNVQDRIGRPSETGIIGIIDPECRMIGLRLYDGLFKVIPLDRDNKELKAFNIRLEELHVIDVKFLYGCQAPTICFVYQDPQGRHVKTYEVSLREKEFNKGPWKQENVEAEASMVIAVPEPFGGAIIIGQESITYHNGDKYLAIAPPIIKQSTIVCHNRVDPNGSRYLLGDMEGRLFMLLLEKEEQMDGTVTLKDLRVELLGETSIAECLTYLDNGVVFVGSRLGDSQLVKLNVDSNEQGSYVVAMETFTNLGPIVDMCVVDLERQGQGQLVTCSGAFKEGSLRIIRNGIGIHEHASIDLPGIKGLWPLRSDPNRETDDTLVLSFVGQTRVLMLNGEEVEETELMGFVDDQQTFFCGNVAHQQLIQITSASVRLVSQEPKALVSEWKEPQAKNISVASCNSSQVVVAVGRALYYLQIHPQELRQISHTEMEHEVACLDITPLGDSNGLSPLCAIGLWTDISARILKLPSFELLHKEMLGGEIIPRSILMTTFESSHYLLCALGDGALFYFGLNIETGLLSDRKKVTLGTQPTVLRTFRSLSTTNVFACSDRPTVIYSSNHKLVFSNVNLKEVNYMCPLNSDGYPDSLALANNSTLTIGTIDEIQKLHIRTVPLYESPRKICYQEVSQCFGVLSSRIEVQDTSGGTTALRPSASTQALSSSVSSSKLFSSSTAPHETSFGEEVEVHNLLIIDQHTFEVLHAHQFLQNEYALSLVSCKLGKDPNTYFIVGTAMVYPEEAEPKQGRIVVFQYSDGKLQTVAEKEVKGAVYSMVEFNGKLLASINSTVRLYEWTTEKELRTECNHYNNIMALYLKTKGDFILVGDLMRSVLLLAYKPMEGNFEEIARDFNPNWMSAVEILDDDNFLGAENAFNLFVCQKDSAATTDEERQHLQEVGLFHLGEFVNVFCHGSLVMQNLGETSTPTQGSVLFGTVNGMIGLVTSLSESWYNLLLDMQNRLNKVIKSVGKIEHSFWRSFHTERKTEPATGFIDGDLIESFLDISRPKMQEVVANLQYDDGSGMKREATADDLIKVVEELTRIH
Method: MV-4-11 cells were obtained from ATCC and grown in IMDM supplemented with 10% FBS. The cells were maintained at 37° C. under 5% CO2.
Compounds of the present disclosure were added to cells (final DMSO concentration of 0.5%) and incubated for 16 hours. CK1α level was determined in MV4-11 cells using flow cytometry (Luminex, Guava EasyCyte Plus). Briefly, cells were prepared with sequential 10% formalin and 70% methanol fixation. […] GuavaSoft Incyte software was used to analyse the flow cytometry data. Protein levels relative to DMSO are calculated for CK1α.
The efficacy of CK1α degradation of other part of compounds of the present disclosure was determined by treating MV4-11 cells at […] (Final DMSO concentration of 0.5%) for 16 hours. Protein levels relative to DMSO are calculated for CK1α.
Protein levels relative to DMSO are calculated for CK1α.

Compound	IC50 [1] [nM]	Dmax at 0.316 µM [2] [%]
C[C@@H](N[C@H]1CC[C@@H](N(CCC2CC2)c2cccc3c2CN(C2CCC(=O)NC2=O)C3=O)CC1)C(F)(F)F (stereo partly drawn) [Compound 548A, 3-(4-((2-cyclopropylethyl)((1s,4s)-4-(((R)-1,1,1-trifluoropropan-2-yl)amino)cyclohexyl)amino)-1-oxoisoindolin-2-yl)piperidine-2,6-dione]	100 to 1000	50 to 75
N[C@H]1CC[C@H](N(CCC2CCNCC2)c2cccc3c2CN(C2CCC(=O)NC2=O)C3=O)CC1 (stereo partly shown) [Compound 239, 3-(4-(((1r,4r)-4-aminocyclohexyl) (2-(piperidin-4-yl)ethyl)amino)-1-oxoisoindolin-2-yl) piperidine-2,6-dione, 2HCl]	> 1000	< 50
N#CCCCN[C@H]1CC[C@H](N(CCC2CC2)c2cccc3c2CN(C2CCC(=O)NC2=O)C3=O)CC1 (stereo partly shown) [Compound 543, 4-{[(1r,4r)-4-[(2-cyclopropylethyl)[2-(2,6-dioxopiperidin-3-yl)-1-oxo-3H-isoindol-4-yl]amino]cyclohexyl]amino}butanenitrile]	< 100	> 75
NC[C@@H]1CC[C@@H](N(CCC2CC2)c2cccc3c2CN(C2CCC(=O)NC2=O)C3=O)C1 (stereo partly drawn) [Compound 325A, 3-(4-(((1R,3R)-3-(aminomethyl)cyclopentyl)(2-cyclopropylethyl)amino)-1-oxoisoindolin-2-yl)piperidine-2,6-dione, HCl]	< 100	> 75
O=C1CCC(N2Cc3c(cccc3N(CCC3CC3)[C@H]3CC[C@H](NCC(F)F)CC3)C2=O)C(=O)N1 (stereo partly shown) [Compound 539, 3-{4-[(2-cyclopropylethyl)[(1s,4s)-4-[(2,2-difluoroethyl)amino]cyclohexyl]amino]-1-oxo-3H-isoindol-2-yl}piperidine-2,6-dione]	100 to 1000	50 to 75
CC(C)CCN(c1cccc2c1CN(C1CCC(=O)NC1=O)C2=O)[C@H]1CC[C@H](N)CC1 (stereo partly shown) [Compound 238, 3-(4-(((1r,4r)-4-aminocyclohexyl)(isopentyl)amino)-1-oxoisoindolin-2-yl)piperidine-2,6-dione hydrochloride]	< 100	> 75
N[C@H]1CC[C@H](N(CCCC2CCNCC2)c2cccc3c2CN(C2CCC(=O)NC2=O)C3=O)CC1 (stereo partly shown) [Compound 241, 3-(4-(((1r,4r)-4-aminocyclohexyl)(3-(piperidin-4-yl)propyl)amino)-1-oxoisoindolin-2-yl)piperidine-2,6-dione, 2HCl]	> 1000	< 50
CCCCCN(c1cccc2c1CN(C1CCC(=O)NC1=O)C2=O)[C@H]1CC[C@H](NCC(C)C)CC1 (stereo partly shown) [Compound 311, 3-(4-(((1r,4r)-4-(isobutylamino)cyclohexyl)(pentyl)amino)-1-oxoisoindolin-2-yl)piperidine-2,6-dione, HCl]	< 100	> 75
COCCN[C@H]1CC[C@H](N(CCC2CC2)c2cccc3c2CN(C2CCC(=O)NC2=O)C3=O)CC1 (stereo partly shown) [Compound 542, 3-{4-[(2-cyclopropylethyl)[(1r,4r)-4-[(2-methoxyethyl)amino]cyclohexyl]amino]-1-oxo-3H-isoindol-2-yl}piperidine-2,6-dione]	< 100	> 75
C[C@@H](N[C@H]1CC[C@H](N(CCC2CC2)c2cccc3c2CN(C2CCC(=O)NC2=O)C3=O)CC1)C(F)(F)F (stereo partly drawn) [Compound 548, 3-(4-((2-cyclopropylethyl)((1r,4r)-4-(((R)-1,1,1-trifluoropropan-2-yl)amino)cyclohexyl)amino)-1-oxoisoindolin-2-yl)piperidine-2,6-dione]	100 to 1000	< 50
CC#CCCN(CCCCN)c1cccc2c1CN(C1CCC(=O)NC1=O)C2=O (stereo not shown) [Compound 95, 3-(4-((4-aminobutyl)(pent-3-yn-1-yl)amino)-1-oxoisoindolin-2-yl)piperidine-2,6-dione, HCl]	100 to 1000	< 50
O=C1CCC(N2Cc3c(cccc3N(CCCC(F)(F)F)[C@H]3CC[C@H](NC4CC(F)(F)C4)CC3)C2=O)C(=O)N1 (stereo partly shown) [Compound 512, 3-(4-(((1r,4r)-4-((3,3-difluorocyclobutyl)amino)cyclohexyl)(4,4,4-trifluorobutyl)amino)-1-oxoisoindolin-2-yl)piperidine-2,6-dione]	100 to 1000	50 to 75
CCCCCN(c1cccc2c1CN(C1CCC(=O)NC1=O)C2=O)[C@@H]1CC[C@H](CN)C1 (stereo partly drawn) [Compound 326, 3-(4-(((1R,3S)-3-(aminomethyl)cyclopentyl)(pentyl)amino)-1-oxoisoindolin-2-yl)piperidine-2,6-dione, Formic Acid salt]	< 100	> 75
CCCCCN(c1cccc2c1CN(C1CCC(=O)NC1=O)C2=O)[C@H]1CC[C@@H](C(N)=O)CC1 (stereo partly drawn) [Compound 307, (1S,4S)-4-((2-(2,6-dioxopiperidin-3-yl)-1-oxoisoindolin-4-yl)(pentyl)amino)cyclohexane-1-carboxamide]	< 100	> 75
CCCCCN(c1cccc2c1CN(C1CCC(=O)NC1=O)C2=O)[C@H]1CC[C@H](C(N)=O)CC1 (stereo partly drawn) [Compound 305, (1R,4R)-4-((2-(2,6-dioxopiperidin-3-yl)-1-oxoisoindolin-4-yl)(pentyl)amino)cyclohexane-1-carboxamide]	< 100	> 75
CC(=O)N[C@H]1CC[C@H](N(CCCCN)c2cccc3c2CN(C2CCC(=O)NC2=O)C3=O)CC1 (stereo partly shown) [Compound 273, N-((1r,4r)-4-((4-aminobutyl)(2-(2,6-dioxopiperidin-3-yl)-1-oxoisoindolin-4-yl)amino)cyclohexyl)acetamide, 2HCl]	> 1000	50 to 75
CCCCCN(c1cccc2c1CN(C1CCC(=O)NC1=O)C2=O)[C@H]1CC[C@H](NCCC)CC1 (stereo partly shown) [Compound 312, 3-(1-oxo-4-(pentyl((1r,4r)-4-(propylamino)cyclohexyl)amino)isoindolin-2-yl)piperidine-2,6-dione, HCl]	< 100	> 75
CCCCCN(c1cccc2c1CN(C1CCC(=O)NC1=O)C2=O)[C@H]1CC[C@H](NCC2CC2)CC1 (stereo partly drawn) [Compound 313, 3-(4-(((1R,4R)-4-((cyclopropylmethyl)amino)cyclohexyl)(pentyl)amino)-1-oxoisoindolin-2-yl)piperidine-2,6-dione hydrochloride]	< 100	> 75
CC(CC(F)(F)F)N[C@H]1CC[C@H](N(CCC2CC2)c2cccc3c2CN(C2CCC(=O)NC2=O)C3=O)CC1 (stereo partly shown) [Compound 547, 3-{4-[(2-cyclopropylethyl)[(1r,4r)-4-[(4,4,4-trifluorobutan-2-yl)amino]cyclohexyl]amino]-1-oxo-3H-isoindol-2-yl}piperidine-2,6-dione]	< 100	> 75
N[C@H]1CC[C@H](N(CCCC2CCOCC2)c2cccc3c2CN(C2CCC(=O)NC2=O)C3=O)CC1 (stereo partly shown) [Compound 242, 3-(4-(((1r,4r)-4-aminocyclohexyl)(3-(tetrahydro-2H-pyran-4-yl)propyl)amino)-1-oxoisoindolin-2-yl)piperidine-2,6-dione hydrochloride]	< 100	> 75
N[C@H]1CC[C@H](N(CCN2CCNCC2)c2cccc3c2CN(C2CCC(=O)NC2=O)C3=O)CC1 (stereo partly shown) [Compound 243, 3-(4-(((1r,4r)-4-aminocyclohexyl)(2-(piperazin-1-yl)ethyl)amino)-1-oxoisoindolin-2-yl)piperidine-2,6-dione, 3HCl]	> 1000	< 50
O=C1CCC(N2Cc3c(cccc3N(CCC3CC3)[C@H]3CC[C@H](NC4COC4)CC3)C2=O)C(=O)N1 (stereo partly shown) [Compound 517, 3-(4-((2-cyclopropylethyl)((1r,4r)-4-(oxetan-3-ylamino)cyclohexyl)amino)-1-oxoisoindolin-2-yl)piperidine-2,6-dione]	< 100	> 75
N[C@H]1CC[C@H](N(CCC2CC2)c2cccc3c2CN(C2CCC(=O)NC2=O)C3=O)CC1 (stereo partly shown) [Compound 237, 3-(4-(((1r,4r)-4-aminocyclohexyl)(2-cyclopropylethyl)amino)-1-oxoisoindolin-2-yl)piperidine-2,6-dione, HCl]	< 100	> 75
NC[C@]1(O)CC[C@H](N(CC2CC2)c2cccc3c2CN(C2CCC(=O)NC2=O)C3=O)CC1 (stereo partly shown) [Compound 536, 3-(4-(((1r,4r)-4-(aminomethyl)-4-hydroxycyclohexyl)(cyclopropylmethyl)amino)-1-oxoisoindolin-2-yl)piperidine-2,6-dione]	100 to 1000	< 50
N[C@H]1CC[C@H](N(CCCN2CCOCC2)c2cccc3c2CN(C2CCC(=O)NC2=O)C3=O)CC1 (stereo partly shown) [Compound 246, 3-(4-(((1r,4r)-4-aminocyclohexyl)(3-morpholinopropyl)amino)-1-oxoisoindolin-2-yl)piperidine-2,6-dione dihydrochloride]	> 1000	< 50
O=C1CCC(N2Cc3c(cccc3N(CCC3CC3)[C@H]3CC[C@H](NC4CC(F)(F)C4)CC3)C2=O)C(=O)N1 (stereo partly shown) [Compound 515, 3-(4-((2-cyclopropylethyl)((1r,4r)-4-((3,3-difluorocyclobutyl)amino)cyclohexyl)amino)-1-oxoisoindolin-2-yl)piperidine-2,6-dione formate]	> 1000	50 to 75
